In assay [1] the target is T1, Serine/threonine-protein kinase TBK1 (Homo sapiens) (UniProt Q9UHD2).
T1 sequence (whole entry): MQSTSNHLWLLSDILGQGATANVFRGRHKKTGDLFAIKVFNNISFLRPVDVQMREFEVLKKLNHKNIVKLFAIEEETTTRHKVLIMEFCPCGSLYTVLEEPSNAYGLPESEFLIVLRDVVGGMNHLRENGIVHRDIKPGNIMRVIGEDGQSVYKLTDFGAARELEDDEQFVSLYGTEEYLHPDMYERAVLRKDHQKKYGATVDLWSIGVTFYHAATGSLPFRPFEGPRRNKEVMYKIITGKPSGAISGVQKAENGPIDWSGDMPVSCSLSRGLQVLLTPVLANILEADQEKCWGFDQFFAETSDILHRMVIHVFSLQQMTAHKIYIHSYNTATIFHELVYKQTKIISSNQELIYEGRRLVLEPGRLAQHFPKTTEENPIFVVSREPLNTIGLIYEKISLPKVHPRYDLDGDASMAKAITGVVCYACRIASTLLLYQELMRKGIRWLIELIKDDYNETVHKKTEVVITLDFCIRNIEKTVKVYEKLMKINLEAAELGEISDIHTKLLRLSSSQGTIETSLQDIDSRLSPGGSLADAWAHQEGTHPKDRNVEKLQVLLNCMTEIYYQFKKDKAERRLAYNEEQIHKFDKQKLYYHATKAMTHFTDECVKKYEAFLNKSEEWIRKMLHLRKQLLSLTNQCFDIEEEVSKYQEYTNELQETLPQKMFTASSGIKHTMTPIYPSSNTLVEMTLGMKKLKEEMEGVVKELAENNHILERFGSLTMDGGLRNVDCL
As to conditions: at 1 µM.

Assay [2] has as its target T2, Tyrosine-protein kinase Mer (Homo sapiens) (UniProt Q12866).
T2 sequence (whole entry): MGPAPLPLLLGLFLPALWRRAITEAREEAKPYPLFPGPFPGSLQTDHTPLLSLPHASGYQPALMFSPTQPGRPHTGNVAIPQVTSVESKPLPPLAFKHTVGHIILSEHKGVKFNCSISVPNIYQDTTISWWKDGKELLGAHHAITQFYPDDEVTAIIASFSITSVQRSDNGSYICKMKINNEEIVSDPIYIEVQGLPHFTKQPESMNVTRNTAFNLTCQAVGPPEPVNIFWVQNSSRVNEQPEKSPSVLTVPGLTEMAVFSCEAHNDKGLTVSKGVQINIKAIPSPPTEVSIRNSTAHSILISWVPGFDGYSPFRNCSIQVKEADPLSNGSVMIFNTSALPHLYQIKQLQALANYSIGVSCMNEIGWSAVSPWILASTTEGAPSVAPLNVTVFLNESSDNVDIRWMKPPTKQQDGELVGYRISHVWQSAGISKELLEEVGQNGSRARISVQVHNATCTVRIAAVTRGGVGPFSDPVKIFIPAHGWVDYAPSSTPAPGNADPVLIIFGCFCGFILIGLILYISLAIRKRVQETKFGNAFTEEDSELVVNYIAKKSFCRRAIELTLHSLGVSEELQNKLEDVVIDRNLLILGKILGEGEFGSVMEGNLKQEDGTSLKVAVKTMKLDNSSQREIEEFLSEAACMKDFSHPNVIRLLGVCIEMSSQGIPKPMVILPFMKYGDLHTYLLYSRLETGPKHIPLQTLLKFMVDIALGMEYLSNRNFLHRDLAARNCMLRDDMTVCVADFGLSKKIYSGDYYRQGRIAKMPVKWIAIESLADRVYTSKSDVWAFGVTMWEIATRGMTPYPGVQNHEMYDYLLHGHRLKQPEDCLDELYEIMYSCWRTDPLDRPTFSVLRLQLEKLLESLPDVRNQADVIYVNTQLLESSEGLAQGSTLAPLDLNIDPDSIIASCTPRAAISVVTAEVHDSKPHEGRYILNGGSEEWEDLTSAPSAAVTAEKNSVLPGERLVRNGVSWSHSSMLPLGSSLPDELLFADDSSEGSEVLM
The conditions noted are these: at 10 µM.

In assay [3] the target is T3, Inhibitor of nuclear factor kappa-B kinase subunit beta (Homo sapiens) (UniProt O14920).
T3 sequence (whole entry): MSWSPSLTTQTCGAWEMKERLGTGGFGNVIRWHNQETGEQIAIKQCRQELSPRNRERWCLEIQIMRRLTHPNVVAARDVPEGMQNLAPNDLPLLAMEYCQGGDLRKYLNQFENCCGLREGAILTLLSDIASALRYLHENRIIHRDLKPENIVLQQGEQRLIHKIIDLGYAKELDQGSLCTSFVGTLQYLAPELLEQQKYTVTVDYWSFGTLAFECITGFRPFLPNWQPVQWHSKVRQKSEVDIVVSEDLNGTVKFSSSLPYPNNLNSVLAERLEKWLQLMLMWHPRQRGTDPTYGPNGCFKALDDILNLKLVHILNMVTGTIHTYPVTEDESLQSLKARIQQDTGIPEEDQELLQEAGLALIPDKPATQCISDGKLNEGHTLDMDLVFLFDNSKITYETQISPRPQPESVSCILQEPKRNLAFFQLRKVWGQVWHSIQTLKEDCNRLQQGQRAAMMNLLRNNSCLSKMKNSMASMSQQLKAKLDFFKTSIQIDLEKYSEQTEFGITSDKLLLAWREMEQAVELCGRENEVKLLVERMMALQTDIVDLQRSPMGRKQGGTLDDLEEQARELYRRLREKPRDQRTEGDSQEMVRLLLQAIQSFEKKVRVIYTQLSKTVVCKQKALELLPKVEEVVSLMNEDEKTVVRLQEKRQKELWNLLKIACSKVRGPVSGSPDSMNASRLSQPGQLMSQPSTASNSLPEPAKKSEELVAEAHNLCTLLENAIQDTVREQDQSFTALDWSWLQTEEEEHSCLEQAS
As to conditions: at 1 µM.

The results in this text go back to ChEMBL document CHEMBL2007661, “Compounds: GSK PKIS; Assays: UNC Frye lab” (2012).

“And” between values parts separate entries of the source, which are not always exact repeats. Equal entries are not always repeated.

With `CN1CCC(n2cnc(-c3ccc(F)cc3)c2-c2ccnc(Nc3ccccc3)n2)CC1`, the inhibition in assay [1] was 0% and -2%; in assay [2] it was -1%; in assay [3] it was -3% and 2%.
For the compound `CNC(=O)c1ncccc1Nc1nc(Nc2cc3c(cc2OC)CCCN3C(=O)CN(C)C)nc2[nH]ccc12`, the inhibition was 8% and 12% in assay [1]; 77% in assay [2]; -5% and -3% in assay [3].
For the compound `O=C(Nc1n[nH]c2nnc(-c3cccnc3)cc12)C1CC1`, the inhibition in assay [1] is 5% and 3%; in assay [2], -7%; in assay [3] it was 2%.
With `CN1CCC(C(=O)Nc2n[nH]c3nnc(-c4ccccc4)cc23)CC1`, the inhibition in assay [1] was -3% and -7%; in assay [2], 1%; in assay [3], -4%.
Turning to `CS(=O)(=O)CCNCc1ccc(-c2ccc3ncnc(Nc4ccc(OCc5ccccc5)c(C(F)(F)F)c4)c3c2)o1`, the inhibition was -3% and -1% in assay [1]; -2% in assay [2]; -5% and -3% in assay [3].
In the case of `CCCN(CCS(C)(=O)=O)Cc1ccc(-c2ccc3ncnc(Nc4ccc(OCc5cccc(F)c5)c(Cl)c4)c3c2)o1`, the inhibition is 7% and 10% in assay [1]; -3% in assay [2]; -1% and -5% in assay [3].
On to `CN(c1ccc(NC(=O)NCCN2CCOCC2)cc1)c1ccnc(Nc2ccc(CS(C)(=O)=O)cc2)n1`, for which the inhibition in assay [1] was 3% and 2%; in assay [2], 101%; in assay [3], 2% and -2%.
With `CCN1CCC(CC(=O)Nc2n[nH]c3nc(-c4cccs4)c(Br)cc23)CC1`, the inhibition in assay [1] is 8% and 6%; in assay [2], -2%; in assay [3], -4% and -3%.
For the compound `COc1cc(C=NNc2ncnc3c2cnn3-c2ccccc2)ccc1O`, the inhibition in assay [1] is 38% and 42%; in assay [2] it was 0%; in assay [3] it was 2%.
`Nc1nc(-c2ccccn2)c(-c2ccc3ncccc3n2)s1`: the inhibition in assay [1] is 3% and 0%; in assay [2], -5%; in assay [3], -4% and -7%.
Take `O=S(=O)(CCNCc1ccc(-c2ccc3ncnc(Nc4ccc(OCc5cccc(F)c5)c(Cl)c4)c3c2)o1)c1ccccc1`: the inhibition is 12% and 18% in assay [1]; 72% in assay [2]; 0% and -2% in assay [3].
Consider `COc1cc2c(cc1Nc1nc(N3CCc4ccccc43)c3cc[nH]c3n1)N(C(=O)CN(C)C)CC2`, for which the inhibition was 24% and 28% in assay [1]; 3% in assay [2]; -6% in assay [3].
For `Cc1cccc(-c2n[nH]cc2-c2ccc3ncccc3n2)n1`, the inhibition was -10% and -6% in assay [1]; -6% in assay [2]; -4% and -1% in assay [3].
Take `COC(=O)Nc1nc2ccc(S(=O)(=O)c3ccc(NC(=O)Nc4cc(C(F)(F)F)ccc4F)cc3)cc2[nH]1`: the inhibition in assay [1] is 0%; in assay [2], 0%; in assay [3] it was -6% and -5%.
For `Nc1nccc(-c2c(-c3ccc(F)cc3)nn3cc(C(F)(F)F)ccc23)n1`, the inhibition in assay [1] is -3% and 1%; in assay [2], 88%; in assay [3], -2% and -4%.
For the compound `CS(=O)(=O)Nc1ccc(-c2cc(-c3ccccc3)cc(C(N)=O)c2N)cc1`, the inhibition was -2% and -4% in assay [1]; -2% in assay [2]; -1% and -4% in assay [3].
Consider `COc1cccc(-n2ncc3c(N/N=C/c4ccc(F)cc4)ncnc32)c1`, for which the inhibition was 5% and 11% in assay [1]; -2% in assay [2]; 1% and -3% in assay [3].
For the compound `CN(C)CCCNc1nccc(-c2c(-c3ccc(F)cc3)nn3cc(C(F)(F)F)ccc23)n1`, the inhibition in assay [1] is -1% and 2%; in assay [2], 0%; in assay [3] it was 2% and 0%.
For the compound `O=C(O[C@H]1CN[C@H](C#Cc2cc3ncnc(Nc4ccc5c(cnn5Cc5ccccc5)c4)c3s2)C1)N1CCOCC1`, the inhibition is 26% and 31% in assay [1]; 15% in assay [2]; -4% and -7% in assay [3].
For `Nc1nonc1-c1nc2cnccc2n1C1CC1`, the inhibition in assay [1] was 8%; in assay [2] it was 48%; in assay [3], -3% and 2%.
For `COC(=O)Nc1nc2cc(Oc3cccc(NC(=O)Nc4cc(C(F)(F)F)ccc4F)c3)ccc2[nH]1`, the inhibition in assay [1] was -2%; in assay [2], -10%; in assay [3], 0% and 5%.
In the case of `NC(=O)c1ccc(-c2nc(-c3ccccn3)c(-c3ccc4c(c3)OCO4)[nH]2)cc1`, the inhibition is 0% and 5% in assay [1]; 1% in assay [2]; 5% and 2% in assay [3].
Take `O=C(Nc1ccc(Oc2ccc3[nH]c(NC(=O)c4ccccc4)nc3c2)cc1)Nc1cc(C(F)(F)F)ccc1F`: the inhibition is 6% and 3% in assay [1]; 78% in assay [2]; -2% and 2% in assay [3].
With `COc1cccc(-n2nc(C)c3c(N/N=C(\C)c4ccncc4)ncnc32)c1`, the inhibition is 4% and 2% in assay [1]; -8% in assay [2]; -3% in assay [3].
With `O=C(NCC1CC1)c1ccc(-c2cccc(C(=O)NC3CC3)c2)cc1`, the inhibition in assay [1] is 2% and 1%; in assay [2], 0%; in assay [3], 1% and 4%.
Turning to `COc1ccc2[nH]c3c4[nH]c5ccc(OC)cc5c4c4c(c3c2c1)C(=O)NC4=O`, the inhibition in assay [1] is 55% and 56%; in assay [2], 5%; in assay [3] it was -1% and -5%.
As to `CN(C)C(=O)O[C@H]1CN[C@H](C#Cc2cc3ncnc(Nc4ccc(OCc5cccc(F)c5)c(Cl)c4)c3s2)C1`, the inhibition in assay [1] is 7% and 8%; in assay [2], 2%; in assay [3], 4% and -2%.
As for `CS(=O)(=O)CCNCc1nc(-c2ccc3ncnc(Nc4ccc(OCc5cccc(C(F)(F)F)c5)cc4)c3c2)cs1`, the inhibition in assay [1] was -2% and 1%; in assay [2], -6%; in assay [3], -2% and -1%.
For the compound `CCn1c(-c2nonc2N)nc2c(N3CCCC3)nccc21`, the inhibition was -8% and -4% in assay [1]; -3% in assay [2]; -6% and -5% in assay [3].
In the case of `CCCN1CCC(c2ccc(Nc3nc(Nc4cc(F)ccc4C(N)=O)c4cc[nH]c4n3)c(OC)c2)CC1`, the inhibition was 13% and 7% in assay [1]; 5% in assay [2]; -2% and 4% in assay [3].
Consider `NS(=O)(=O)c1ccc(Nc2ncc(-c3ccccc3)o2)cc1`, for which the inhibition was 10% and 5% in assay [1]; 2% in assay [2]; -2% and 2% in assay [3].
